Earlier results in patent US5977101A, “Benzimidazoles/Imidazoles Linked to a Fibrinogen Receptor Antagonist Template Having Vitronectin Receptor Antagonist Activity” (SmithKline Beecham Corporation, priority 1996, dated 1999).

What was measured:
[1] = test system: osteoclasts; details: Sato et al. 1990; Bertolini et al.
[2] = test system: bone resorption; details: Sato et al., J. Cell Biol. 1990
[3] = test system: bone resorption; details: rat; Fisher et al., Endocrinology 1993

Substance: cylco-S,S-N^α -acetyl-cysteinyl-N^α -methyl-argininyl-glycyl-aspartyl-penicillamine
- inhibition of attachment of osteoclasts to bone [1]: inhibits

Substance: echistatin
- inhibition of attachment of osteoclasts to bone [1]: inhibits
- inhibition of bone resorption in tissue culture [2]: potent inhibitor
- inhibition of bone resorption in vivo [3]: inhibits
